From US9816994B2, “Method for treating a blood component containing sample” (ARKRAY, Inc., priority 2012, dated 2017)

How the values were obtained:
[1] = test system: SNU-1 gastric cancer cells; assay: Assessment of damage to cancer cells (trypan blue survival rate), SNU-1; assay type: cell-based, human; conditions: 10 minutes after a contact with surfactant, 2.5 w/v %
Protocol: Cells of SNU-1, MCF-7, SW620, PC3, and NCI-358 derived from gastric cancer, breast cancer, large intestinal cancer, prostate cancer, and lung cancer were prepared to be 2×10^6 Cells/ml and used. The cancer cells were prepared in the following manner. 50 μL of a cancer cell suspension in the serum-including medium and 50 μL of the aqueous solution of the surfactant were added into the 1.5 ml microcentrifuge tube, stirred with pipetting so as to make the solution homogeneous. Later, the solution was allowed to stand at an ambient temperature of 23° C. for about 10 minutes so as to proceed the reaction. […] Provided that the number of cells in a reaction liquid to which distilled water had been added in place of the reagent being 100%, the survival rate was calculated from the number of cells survived 10 minutes after (Example 1) and 30 minutes after (Example 2) from the reaction with the aqueous solution of the surfactant. […]
A mixture of the surfactant No. 1 and either the surfactant No. 2 or No. 3 was prepared at a mixing ratio of 10:0 to 0:10 (weight ratio: the total concentration of the surfactants was 2.5 w/v %). […] The survival rate was calculated from the number of cells survived after the reaction with the mixture of surfactants, provided that the number of cells in a reaction liquid to which distilled water had been added in place of the reagent being 100%. […]

[2] = test system: PC3 prostate cancer cells; assay: Assessment of damage to cancer cells (trypan blue survival rate), PC3; assay type: cell-based, human; conditions: 10 minutes after a contact with surfactant, 2.5 w/v %
Protocol: (§1) Cells of SNU-1, MCF-7, SW620, PC3, and NCI-358 derived from gastric cancer, breast cancer, large intestinal cancer, prostate cancer, and lung cancer were prepared to be 2×10^6 Cells/ml and used. The cancer cells were prepared in the following manner. 50 μL of a cancer cell suspension in the serum-including medium and 50 μL of the aqueous solution of the surfactant were added into the 1.5 ml microcentrifuge tube, stirred with pipetting so as to make the solution homogeneous. Later, the solution was allowed to stand at an ambient temperature of 23° C. for about 10 minutes so as to proceed the reaction. Then, the reaction liquid in the microcentrifuge tube was stirred with pipetting so as to disperse the cells, and subsequently, 50 μL of the liquid was dispensed into another microcentrifuge tube and 50 μL of 0.4% trypan blue stain solution (Invitrogen) was mixed therein. This was injected into a counting chamber so as to count living cells that had not been stained with the trypan blue. Provided that the number of cells in a reaction liquid to which distilled water had been added in place of the reagent being 100%, the survival rate was calculated from the number of cells survived 10 minutes after (Example 1) and 30 minutes after (Example 2) from the reaction with the aqueous solution of the surfactant. […]

erythrocytes = assay: Measurement of lysis time of erythrocytes (absorbance at 650 nm, micro-plate reader); assay type: cell-based, human
Protocol: As a sample containing erythrocytes, blood that had been collected from a vein of a healthy person by use of a vacuum blood-collecting vessel (EDTA including 2K) was used. 30 μL of the sample containing the blood was dispensed onto a 96-well microplate, in which 30 μL of the aqueous solution of surfactant was mixed and stirred five times with pipetting, thereby allowing the reaction solution to react homogeneously. The absorbance was measured every one minute with a micro-plate reader. The moment at which the absorbance became 0.5 or lower at a wavelength of 650 nm was determined as the lysis of the blood cells. The results are shown in Table 3 below (Examples 1 and 2). In Examples 1 and 2, the absorbance reached 0.5 within the time period from 30 minutes to 60 minutes after starting the measurement. On the other hand, in Comparative Example 9 where the aqueous solution of the surfactant was replaced by distilled water, the absorbance did never reach 0.5 even 60 minutes after from the start of the measurement. The micro-plate reader used herein was Thermo Labsystems Multiskan Ascent 35 manufactured by Thermo Labsystems.

[3] = test system: SW620 large intestinal cancer cells; assay: Assessment of damage to cancer cells (trypan blue survival rate), SW620; assay type: cell-based, human; conditions: 10 minutes after a contact with surfactant, 2.5 w/v %
Protocol: as §1

leukocytes = assay: Assessment of damage to leukocytes (trypan blue survival rate); assay type: cell-based
Protocol: Leukocytes were separated from 10 ml of fresh blood in accordance with HetaSep protocol (manufactured by STEMCELL (trade name) Technologies), which was suspended in 1 ml of PBS(−) and collected in a 1.5 ml disposable microtube (a microcentrifuge tube with trade name of DSP-MC-15A manufactured by Nichiryo Co., Ltd.). Since a small amount of erythrocytes were still included in the separated leukocytes, the erythrocytes were eliminated by using ammonium chloride (supplied by STEMCELL (trade name) Technologies) in accordance with the attached document, and the leukocytes were collected through centrifugation, washed in PBS(−), and then suspended in 1 ml of a serum-including medium. 50 μL of leukocyte suspension in the serum-including medium and 50 μL of the aqueous solution of the surfactant were mixed in the 1.5 ml microcentrifuge tube, and the mixed solution was stirred with pipetting about five times so that the solution would be homogeneous. […] Provided that the number of cells in a reaction liquid to which distilled water had been added in place of the reagent being 100%, the survival rate was calculated from the number of cells survived 10 minutes after (Example 1) and 30 minutes after (Example 2) from the reaction with the aqueous solution of surfactant.

[4] = test system: MCF-7 breast cancer cells; assay: Assessment of damage to cancer cells (trypan blue survival rate), MCF-7; assay type: cell-based, human; conditions: 10 minutes after a contact with surfactant, 2.5 w/v %
Protocol: as §1

[5] = test system: NCI-H358 lung cancer cells; assay: Assessment of damage to cancer cells (trypan blue survival rate), NCI-H358; assay type: cell-based, human; conditions: 10 minutes after a contact with surfactant, 2.5 w/v %
Protocol: as §1

Substance: polyoxyethylene octyl dodecylether (EO=25) [Surfactant No. 1]
- Cancer cell survival rate (%) SNU-1 Gastric cancer [1]: 86.1%
- Cancer cell survival rate (%) PC3-9 Prostate cancer [2]: 101.8%
- Lysis time to reach absorbance of 0.5 (erythrocytes; surfactant (2.5 w/v %), mixing ratio 2:8 (No. 1 is 80%)): 30 to 60 min
- Lysis time to reach absorbance of 0.5 (erythrocytes; surfactant used alone, preparation concentration 2.5 w/v %): 30 to 60 min
- Cancer cell survival rate (%) SW620 Large intestinal cancer [3]: 81%
- selectivity of lowering survival rate, leukocytes against cancer cells (leukocytes; 2.5 w/v % aqueous solution, 10 and 30 minutes): lower selectively the survival rate of the leukocytes rather than cancer cells
- Leukocyte survival rate (%) (leukocytes; 10 minutes after contact, 2.5 w/v %, 23° C., distilled water = 100%): 71.8%
- Cancer cell survival rate (%) MCF-7 Breast cancer [4]: 112.3%
- Cancer cell survival rate (%) MCI-358 Lung cancer [5]: 89.9%
